Measurements reported in patent US12410136B2, “Pyridinyl morpholine compound, preparation method therefor, and application thereof” (SHANGHAI ZHONGZE THERAPEUTICS, CO. LTD., priority 2020, dated 2025).
Read-outs that look alike come from different tables or passages of the source.

Key:
[1] = target: T1, human recombinant D3 receptor (Homo sapiens, UniProt P35462); test: Dopamine D3 receptor binding test; conditions: [3H]methyl-spiperone 0.3 nM, human recombinant D3 receptor expressed in CHO cells; read-out: Affinity of the compound for each receptor (Ki value, nM) D3
T1 construct: expressed in transfected cells; host or cells: CHO
Experimental: Dopamine D3 Receptor Binding Test
[^3H]methyl-spiperone (0.3 nM) was used as the ligand, and (+)-butaclamol (10 μM) was used to determine the non-specific binding, and the binding assay was performed on human recombinant D3 receptor (expressed in CHO cells).

[2] = target: T2, 5-HT2A receptor (Homo sapiens, UniProt P28223); test: 5-HT2A receptor binding test
T2 construct: expressed in transfected cells; host or cells: HEK293
Excerpt: 5-HT2A Receptor Binding Test
Beckman LS-6500 multifunctional liquid scintillation counter.
Tris-HCl reaction buffer (pH 7.7) was used to resuspend in the experiment.

[3] = tested on: mouse model of schizophrenia induced by MK-801; test: MK-801 model experiment (open-field motion); conditions: for Improvement rate on open-field motion of mice compared with cariprazine: MK-801 model, oral; for ED50: Mus musculus, 1.5 h, read-out: Effect on the total distance of open-field motion in mouse model of schizophrenia induced by MK-801, ED50
Experimental: An acute mode of administration was used in the experiment. The experimental mice were randomly divided into groups and put into a spontaneous activity box to adapt for 5-10 minutes before the experiment. […] The data were expressed as mean±standard error (Mean±SEM), and were analyzed using GraphPad Prism software, and data analysis was performed using t-test, and a significant difference was considered to exist when P<0.05.

[4] = target: T3, H1 receptor (Homo sapiens, UniProt P35367); test: H1 receptor binding test; conditions: 1 nM [3H]pyrilamine, HEK-293 cell membrane homogenate; read-out: Affinity of the compound for H1 receptor (Ki value, nM) H1
T3 construct: expressed in transfected cells; host or cells: HEK-293
Experimental: Non-specific binding was determined in the presence of 1 μM pyrilamine.

[5] = target: D2 receptor (Homo sapiens, UniProt P14416); test: Dopamine D2 receptor binding test
Experimental: Dopamine D2 Receptor Binding Test
In this experiment, HEK293 cells were transfected with plasmid vector containing D2 receptor protein gene, and calcium phosphate transfection method was used and after transfection, the cells were cultured in a culture solution containing G418, and the cell monoclonal and radioligand binding experiments were selected, and finally a stable cell line which could stably express D2 receptor protein was obtained.
HeK-293 cells were infected with recombinant viruses containing the above various genes respectively, and after 48-72 hours, the receptor proteins were expressed in large quantities on the membrane, and the cells were centrifuged at 1000 rpm for 5 min and then the culture solution was discarded, and the cells were collected, and stored in a −20° C. refrigerator for later use. Tris-HCl reaction buffer (pH=7.5) was used to resuspend in the experiment.
On the Millipore cell sample collector, the mixture was quickly filtrated under reduced pressure through GF/C glass fiber filter paper, and eluted with 3 mL of eluent (50 mMTris-HCl, pH 7.5) for 3 times, then dried under microwave for 5 to 6 min. The filter paper was moved into a 0.5 mL centrifuge tube, and 500 μL of lipid-soluble scintillation solution was added. The mixture was kept in the dark for more than 30 min, and the radioactivity intensity was determined by counting. […] Two replicate tubes were made for each experiment of compound, and two separate experiments were performed.
Two tubes were tested for each concentration and two independent tests were performed for each compound.

[6] = Acute toxicity experiment, single oral administration; conditions: ICR, mouse, in vivo
Experimental: Acute Toxicity Experiments of the Compound
2) Solvent preparation: An appropriate amount of Tween-80 was weighed and diluted with deionized water to a concentration of […] (g/v) Tween-80.
4) Route of administration: The administration route of the test samples and the solvent control group (0.5% Tween-80) was oral administration.
5) Frequency of administration: Single administration, fasting overnight before administration.
6) Dosing capacity: 20 mL/kg.
[…]; the observation period was 2 to 6 days, twice a day, once in the morning and once in the afternoon.
The observation content includes, but is not limited to, general condition, behavioral activity, gait posture, eye, mouth, nose, gastrointestinal tract, skin hair, urogenital tract.
Body weight data were expressed as mean±standard deviation, and were compared between groups using Levene's test and one-way ANOVA. If there were differences, Dunnet t test was used.
In the MTD test, the tolerance of the animals to the drug was investigated, and the maximum tolerated dose was reached when the animals were dying frequently.

[7] = tested on: mouse schizophrenic model induced by Apo.; test: Apomorphine model experiment (stereotyped motion); assay type: in vivo, C57BL/6 mice; conditions: for ED50: Mus musculus, single oral administration, apomorphine 5 mg/kg i.p., mice, read-out: Inhibition of total stereotyped motion of mouse schizophrenic model induced by Apo., ED50; for Effect (ED50) on the stereotyped behavior of mice compared with cariprazine: apomorphine model, oral
Experimental: 1. Apomorphine Model Experiment
1) 4 point, continuous biting;
2) 3 point, the cage lid was bit at least once during observation;
3) 2 point, the cage chassis or cage wall was licked at least once during observation;
4) 1 point, compulsive sniffing and bowing activities were appeared;
5) 0 point, no of the above activities.
The total score of the mice was calculated for the above behaviors within 70 min, and the improvement rate was calculated according to the following formula.
During the experiment, the clinical response symptoms of the animals were recorded.
All data were expressed as x±SEM, processed with the 11.5 software statistical package, and t-test and one-way analysis of variance were performed for the comparison of the means of the two samples, with P<0.05 as a significant difference.

[8] = [3H]-Ketanserin, 5-HT2A receptor expressed in HEK293 cells, read-out: Affinity of the compound for each receptor (Ki value, nM) 5-HT2A
[9] = single oral administration, ICR mice, read-out: MTD (maximum tolerance)

T1 sequence (P35462 whole entry): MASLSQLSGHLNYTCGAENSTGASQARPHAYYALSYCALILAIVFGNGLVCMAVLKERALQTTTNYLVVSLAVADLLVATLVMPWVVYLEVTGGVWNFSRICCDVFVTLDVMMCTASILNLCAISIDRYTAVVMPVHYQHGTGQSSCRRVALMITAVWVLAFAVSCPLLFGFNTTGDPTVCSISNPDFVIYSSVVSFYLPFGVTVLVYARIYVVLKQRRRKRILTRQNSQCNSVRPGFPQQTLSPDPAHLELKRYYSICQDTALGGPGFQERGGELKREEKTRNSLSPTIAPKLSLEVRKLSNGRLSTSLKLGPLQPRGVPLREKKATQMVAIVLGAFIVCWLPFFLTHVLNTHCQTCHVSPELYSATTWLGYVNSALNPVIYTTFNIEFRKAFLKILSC
T2 sequence (P28223 whole entry): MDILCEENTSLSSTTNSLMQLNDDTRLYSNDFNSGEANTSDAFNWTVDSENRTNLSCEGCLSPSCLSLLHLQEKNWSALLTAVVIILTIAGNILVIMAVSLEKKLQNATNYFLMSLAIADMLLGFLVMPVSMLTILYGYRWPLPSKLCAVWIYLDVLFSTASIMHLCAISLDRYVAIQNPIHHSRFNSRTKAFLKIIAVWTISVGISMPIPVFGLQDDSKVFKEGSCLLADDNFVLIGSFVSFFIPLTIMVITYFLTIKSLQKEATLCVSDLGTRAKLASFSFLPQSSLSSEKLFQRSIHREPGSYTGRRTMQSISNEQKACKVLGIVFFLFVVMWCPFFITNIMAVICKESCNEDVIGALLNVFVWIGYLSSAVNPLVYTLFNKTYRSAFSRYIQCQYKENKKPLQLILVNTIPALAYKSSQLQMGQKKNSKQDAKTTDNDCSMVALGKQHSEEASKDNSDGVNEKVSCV
T3 sequence (P35367 whole entry): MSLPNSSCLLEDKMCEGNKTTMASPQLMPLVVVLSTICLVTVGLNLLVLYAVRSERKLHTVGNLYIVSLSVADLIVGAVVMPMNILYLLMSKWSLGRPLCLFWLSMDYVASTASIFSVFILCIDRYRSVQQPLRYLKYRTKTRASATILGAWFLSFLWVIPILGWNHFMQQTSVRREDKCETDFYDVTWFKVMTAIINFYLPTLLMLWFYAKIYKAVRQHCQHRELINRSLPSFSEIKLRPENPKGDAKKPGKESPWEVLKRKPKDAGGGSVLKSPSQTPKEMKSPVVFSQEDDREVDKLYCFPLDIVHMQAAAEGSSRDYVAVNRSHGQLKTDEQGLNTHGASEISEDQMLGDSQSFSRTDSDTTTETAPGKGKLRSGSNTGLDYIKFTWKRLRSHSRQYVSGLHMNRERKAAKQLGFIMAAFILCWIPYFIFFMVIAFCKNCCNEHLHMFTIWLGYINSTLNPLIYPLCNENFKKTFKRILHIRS
D2 receptor, sequence (P14416 whole entry): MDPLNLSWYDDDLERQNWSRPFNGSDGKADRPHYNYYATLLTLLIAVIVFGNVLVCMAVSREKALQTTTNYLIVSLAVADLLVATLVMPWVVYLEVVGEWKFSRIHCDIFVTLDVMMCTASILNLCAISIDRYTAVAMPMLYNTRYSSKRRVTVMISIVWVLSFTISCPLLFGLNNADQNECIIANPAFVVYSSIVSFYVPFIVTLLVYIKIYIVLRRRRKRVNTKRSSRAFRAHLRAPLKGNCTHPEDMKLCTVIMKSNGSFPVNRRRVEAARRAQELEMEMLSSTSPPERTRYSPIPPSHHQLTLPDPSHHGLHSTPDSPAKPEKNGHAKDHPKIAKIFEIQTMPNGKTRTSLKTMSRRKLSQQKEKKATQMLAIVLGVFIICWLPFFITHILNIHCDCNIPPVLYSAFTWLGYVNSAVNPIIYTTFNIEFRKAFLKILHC

SMILES	Ki [1] [nM]	Ki [2, 8] [nM]	Improvement rate on open-field motion of mice compared with cariprazine [3]	ED50 [3] [mg/kg]	Ki [4] [nM]	Ki [5] [nM]	MTD [6, 9] [mg/kg]	ED50 [7] [mg/kg]	Effect (ED50) on the stereotyped behavior of mice compared with cariprazine [7]	MTD [6] [mg/kg]	Ki [2] [nM]
O=C(N[C@H]1CC[C@H](CCN2CCN(c3cc(-c4cccnc4)cc(N4CCOCC4)n3)CC2)CC1)c1ccco1 [IV-2]	0.03	1.1	better	0.05	> 1000	0.9	> 2000	0.1	better effects	–	–
CN(C)C(=O)N[C@H]1CC[C@H](CCN2CCN(c3cccc(Cl)c3Cl)CC2)CC1 [Cariprazine, cariprazine, reference compound]	–	–	–	0.15	–	–	–	0.3	–	320	–
O=C(N[C@H]1CC[C@H](CCN2CCN(c3cc(-c4ccc(F)cc4)cc(N4CCOCC4)n3)CC2)CC1)c1cccnc1 [II-2, N-(trans-4-(2-(4-(4-(4-fluorophenyl)-6-morpholinopyridin-2-yl)piperazin-1-yl)ethyl)cyclohexyl)nicotinamide]	0.07	2.4	better	0.07	> 1000	0.9	≥ 400	0.08	better effects	–	–
CN(C)C(=O)N[C@H]1CC[C@H](CCN2CCN(c3cc(-c4ccc[nH]4)cc(N4CCOCC4)n3)CC2)CC1 [VII-4, 1,1-dimethyl-3-(trans-4-(2-(4-(6-morpholino-4-(1H-pyrrol-2-yl)pyridin-2-yl)piperazin-1-yl)ethyl)cyclohexyl)urea]	0.03	1.1	–	0.25	> 1000	0.6	≥ 400	0.2	better effects	–	–
CCCN(C)C(=O)N[C@H]1CC[C@H](CCN2CCN(c3cc(-c4ccc(F)cc4)cc(N4CCOCC4)n3)CC2)CC1 [II-6, 3-(trans-4-(2-(4-(4-(4-fluorophenyl)-6-morpholinopyridin-2-yl)piperazin-1-yl)ethyl)cyclohexyl)-1-methyl-1-propylurea]	0.04	1.3	better	0.1	> 1000	1	–	0.13	better effects	–	–
O=C(N[C@H]1CC[C@H](CCN2CCN(c3cc(-c4ccco4)cc(N4CCOCC4)n3)CC2)CC1)N1CCOCC1 [Compound V-5, N-(trans-4-(2-(4-(4-(furan-2-yl)-6-morpholinopyridin-2-yl)piperazin-1-yl)ethyl)cyclohexyl)morpholine-4-carboxamide]	0.04	2.9	–	0.51	> 1000	1	≥ 400	0.78	–	–	–
CCOC(=O)N[C@H]1CC[C@H](CCN2CCN(c3cc(-c4ccccc4)cc(N4CCOCC4)n3)CC2)CC1 [Compound I-3, ethyl ((trans)-4-(2-(4-(6-morpholino-4-phenylpyridin-2-yl)piperazin-1-yl)ethyl)cyclohexyl)carbamate]	0.08	–	–	0.33	> 1000	2.5	≥ 400	0.19	better effects	–	2.1
CC(=O)N[C@H]1CC[C@H](CCN2CCN(c3cc(-c4cccs4)cc(N4CCOCC4)n3)CC2)CC1 [VI-1, N-(trans-4-(2-(4-(6-morpholino-4-(thiophen-2-yl)pyridin-2-yl)piperazin-1-yl)ethyl)cyclohexyl)acetamide]	0.05	1.6	better	0.12	> 1000	0.8	–	0.55	–	–	–
O=C(N[C@H]1CC[C@H](CCN2CCN(c3cc(-c4ccccc4)cc(N4CCOCC4)n3)CC2)CC1)c1ccco1 [Compound I-6, N-((trans)-4-(2-(4-(6-morpholino-4-phenylpyridin-2-yl)piperazin-1-yl)ethyl)cyclohexyl)furan-2-carboxamide]	0.02	1	–	0.2	> 1000	0.14	> 2000	0.43	–	–	–
O=C(N[C@H]1CC[C@H](CCN2CCN(c3cc(-c4cccs4)cc(N4CCOCC4)n3)CC2)CC1)N1CCCC1 [VI-5, N-(trans-4-(2-(4-(6-morpholino-4-(thiophen-2-yl)pyridin-2-yl)piperazin-1-yl)ethyl)cyclohexyl)tetrahydropyrrole-1-carboxamide]	0.07	1.1	–	0.08	> 1000	1	> 2000	0.16	better effects	–	–
O=C(N[C@H]1CC[C@H](CCN2CCN(c3cc(-c4cccs4)cc(N4CCOCC4)n3)CC2)CC1)c1cccnc1 [VI-3, N-(trans-4-(2-(4-(6-morpholino-4-(thiophen-2-yl)pyridin-2-yl)piperazin-1-yl)ethyl)cyclohexyl)nicotinamide]	0.8	1.7	–	–	740	1.9	–	–	–	–	–
